For orientation: EC50 means the concentration needed to bring the measured effect to its halfway point. A high value points to a less potent agent.

This assay has as its target T1, human GPR119 (Homo sapiens, UniProt Q8TDV5).
T1 sequence (Q8TDV5 1-308 limits assumed): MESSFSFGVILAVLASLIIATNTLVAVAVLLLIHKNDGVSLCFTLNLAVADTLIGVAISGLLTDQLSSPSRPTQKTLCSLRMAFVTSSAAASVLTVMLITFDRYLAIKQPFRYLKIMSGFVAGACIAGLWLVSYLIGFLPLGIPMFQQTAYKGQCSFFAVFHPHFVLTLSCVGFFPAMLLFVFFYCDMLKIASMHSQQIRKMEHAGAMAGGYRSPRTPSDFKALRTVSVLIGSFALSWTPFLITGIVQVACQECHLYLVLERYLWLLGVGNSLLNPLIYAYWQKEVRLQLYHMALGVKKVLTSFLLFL
As to the kind of experiment: Measurement of GPR119 signaling by cAMP (LANCE cAMP kit or HTRF) in HEK293 cells transfected with human GPR119. The note with it: agonist cAMP response in HEK293 cells stably transfected with human GPR119; patent does not say which of the two cAMP formats (LANCE or HTRF). It is filed as cell-based. As for the experimental part:
Measurement of GPR119 Signaling Using LANCE 384-Well cAMP Kit
The adenylate cyclase assay was constructed following the LANCE™ cAMP Kit (Perkin Elmer, AD0264) instructions. […] The reaction was stopped by incubating with the supplied detection buffer containing the europium chelate of the Eu-SA/Biotin-cAMP tracer for 3 hours. The assay was performed in duplicate in a 384 well plate for duplicate plates. […] Basal activity was determined using a DMSO control and maximum response was defined as cAMP stimulation produced by an internal agonist control. Standard cAMP concentrations were assayed concurrently for conversion of fluorescence signal to cAMP level. The data was analyzed using 4-parameter curve fit in Microsoft Excel
Measurement of GPR119 Signaling Using a Cyclic AMP (cAMP) Homogenous Time Resolved Fluorescence (HTRF) Assay
Chinese hamster ovary (CHO) cell lines stably transfected with the permissive guanine nucleotide binding protein alpha 15 (Gα15) and murine GPR119 were maintained in DMEM media containing FBS, penicillin-streptomycin, puromycin, and G418 (geneticin). […] Agonist activation of the GPR119 receptor was measured in receptor transfected cells described above, treated with compounds of this invention, using a commercial homogenous time resolved fluorescence (HTRF) kit for measurement of cAMP (CisBio, Bedford, Mass.). The assay was performed in 96-well half-volume plates (murine) or 384-well plates (human) following the manufacturers instructions. Briefly, suspended cells were incubated with a dose titration of test compound at room temperature for 60 min, lysed, and incubated with HTRF reagents for an additional 60 min. The plate was read using an Envision multilabel reader (Perkin Elmer) adjusted to read time resolved fluorescence and the cAMP concentrations were extrapolated from a cAMP calibration curve. […] The concentration of test compound required to stimulate a half-maximal response (EC50), and efficacy as compared to an internal agonist control, was determined from a sigmoidal 4-parameter curve fit of the resulting plot of normalized activity versus compound concentration.
`O=C(Cc1ccc(OCC[C@@H]2C[C@@H]2C2CCN(c3ncc(Cl)cn3)CC2)cc1F)N1CCc2cccnc2C1` [Example 130] showed a half-maximal effective concentration (EC50) of 1.1 nM. This counts as single-digit nanomolar.
`COCc1cnc(N2CCC([C@H]3C[C@H]3CCOc3ccc(CC(=O)N4CC(F)(F)C4)cc3)CC2)nc1` [Example 12]: the EC50 was found to be 3 nM.
With `CCOC(=O)CN(C)C(=O)Cc1ccc(OCC[C@@H]2C[C@@H]2C2CCN(c3ncc(Cl)cn3)CC2)cc1F` [Example 171] the figure was 1.7 nM.
The molecule `O=C(Cc1ccc(OCC[C@@H]2C[C@@H]2C2CCN(c3ncc(Cl)cn3)CC2)c(F)c1)N1CCC1` [Example 250] came in with an EC50 of 2.2 nM. The EC50 values of the last two molecules are within 1.5-fold of each other.
Molecule `COC(=O)C1CN1C(=O)Cc1ccc(OCC[C@@H]2C[C@@H]2C2CCN(c3ncc(Cl)cn3)CC2)cc1F` (stereo partly shown) [Example 107] returned an EC50 of 8.9 nM.
Consider `COCc1cnc(N2CCC([C@H]3C[C@H]3CCOc3ccc(CC(=O)N4CC(O)C4)c(Cl)c3)CC2)nc1` [Example 29], for which the EC50 worked out at 2.4 nM.
`COCc1cnc(N2CCC([C@H]3C[C@H]3CCOc3ccc(CC(=O)N4CC(C)(O)C4)c(F)c3)CC2)nc1` [Example 44]: the concentration for a half-maximal effect (EC50) was determined as 3.6 nM. This EC50 lies about 1.5-fold higher than the previous one.
`COCc1cnc(N2CCC([C@H]3C[C@H]3CCOc3ccc(CC(=O)N4CC5CC5C4)c(F)c3)CC2)nc1` (stereo partly shown) [Example 51] displayed an EC50 of 0.98 nM.
The molecule `O=C(Cc1ccc(OCC[C@@H]2C[C@@H]2C2CCN(c3ncc(Cl)cn3)CC2)cc1F)N1CCc2sccc2C1` [Example 185] had an EC50 of 2.2 nM.
Regarding `CN(CC1CCOCC1)C(=O)Cc1ccc(OCC[C@@H]2C[C@@H]2C2CCN(c3ncc(Cl)cn3)CC2)cc1F` [Example 157], it took 2.4 nM to reach a half-maximal effect (EC50). This EC50 and that of the molecule before are within 1.5-fold of each other.
`O=C(Cc1ccc(OCC[C@@H]2C[C@@H]2C2CCN(c3ncc(Cl)cn3)CC2)cc1F)N1CCc2cncnc2C1` [Example 129] showed an EC50 of 0.29 nM. This EC50 lies about 8.3-fold lower than the previous one.
`COc1cnc(N2CCC([C@H]3C[C@H]3CCOc3cc(F)c(CC(=O)N4CC(F)C4)c(F)c3)CC2)nc1` [Example 216] yielded a concentration for a half-maximal effect (EC50) of 0.09 nM.
In turn, `COC1CN(C(=O)Cc2ccc(OCC[C@@H]3C[C@@H]3C3CCN(c4ncc(Cl)cn4)CC3)cc2F)C1` [Example 69] yielded a concentration giving a half-maximal response (EC50) of 0.17 nM.
In turn, `COCc1cnc(N2CCC([C@H]3C[C@H]3CCOc3ccc(CC(=O)N4CC(OC)C4)c(F)c3)CC2)nc1` [Example 45] yielded a concentration giving a half-maximal response (EC50) of 0.81 nM.
Molecule `COCc1cnc(N2CCC([C@H]3C[C@H]3CCOc3cc(F)c(CC(=O)N(C)C)cc3F)CC2)nc1` [Example 209, 2-{2,5-difluoro-4-[2-((1S,2R)-2-{1-[5-(methoxymethyl)pyrimidin-2-yl]piperidin-4-yl}cyclopropyl)ethoxy]phenyl}-N, N-dimethylacetamide] displayed a concentration giving a half-maximal response (EC50) of 1.6 nM.
As for `O=C(Cc1ccc(OCC[C@@H]2C[C@@H]2C2CCN(c3ncc(Cl)cn3)CC2)cc1F)N1CCc2[nH]nc(C(F)(F)F)c2C1` [Example 146], the figure is 3.1 nM; as for `CC(F)(F)CNC(=O)Cc1ccc(OCC[C@@H]2C[C@@H]2C2CCN(c3ncc(Cl)cn3)CC2)cc1F` [Example 105], 1.5 nM.
As for `O=C(Cc1ccc(OCC[C@@H]2C[C@@H]2C2CCN(c3ncc(Cl)cn3)CC2)cc1F)NC1CCC1` [Example 63], the half-maximal effective concentration (EC50) came to 4.2 nM. Against the preceding molecule, the EC50 is about 2.8-fold higher.
With `Cc1ccc2n1CCN(C(=O)Cc1ccc(OCC[C@@H]3C[C@@H]3C3CCN(c4ncc(Cl)cn4)CC3)cc1F)C2C` (stereo partly shown) [Example 191] the figure was 3.4 nM; with `Cc1nc2c(o1)CN(C(=O)Cc1ccc(OCC[C@@H]3C[C@@H]3C3CCN(c4ncc(Cl)cn4)CC3)cc1F)CC2` [Example 141], 1.2 nM.
For the molecule `O=C(Cc1ccc(OCC[C@@H]2C[C@@H]2C2CCN(c3ncc(Cl)cn3)CC2)cc1F)N1CCc2scnc2C1` [Example 172], the concentration giving a half-maximal response (EC50) came to 0.6 nM.
Regarding `CCOc1cnc(N2CCC([C@H]3C[C@H]3CCOc3cc(F)c(CC(=O)N4CCOCC4)c(F)c3)CC2)nc1` [Example 235], the concentration for a half-maximal effect (EC50) worked out at 0.26 nM. This EC50 lies about 2.3-fold lower than the previous one.
`CC1(C)CN(C(=O)Cc2ccc(OCC[C@@H]3C[C@@H]3C3CCN(c4ncc(Cl)cn4)CC3)cc2F)C1` [Example 70] came in with a concentration for a half-maximal effect (EC50) of 0.8 nM. Against the preceding molecule, the EC50 is about 3.1-fold higher.
In the case of `CCc1cnc(N2CCC([C@H]3C[C@H]3CCOc3ccc(CC(=O)N4CCC4)c(F)c3)CC2)nc1` [Example 207, 1-(azetidin-1-yl)-2-[4-(2-{(1S,2R)-2-[1-(5-ethylpyrimidin-2-yl)piperidin-4-yl]cyclopropyl}ethoxy)-2-fluorophenyl]ethanone], the EC50 turned out to be 0.4 nM.
The molecule `COCc1cnc(N2CCC([C@H]3C[C@H]3CCOc3ccc(CC(=O)N4CCOCC4)c(F)c3)CC2)nc1` [Example 46] gave an EC50 of 1.8 nM.
In turn, `O=C(Cc1ccc(OCC[C@@H]2C[C@@H]2C2CCN(c3ncc(Cl)cn3)CC2)cc1)N1CCC1` [Example 1, 1-(azetidin-1-yl)-2-[4-(2-{(1S,2R)-2-[1-(5-chloropyrimidin-2-yl)piperidin-4-yl]cyclopropyl}ethoxy)phenyl]ethanone] yielded an EC50 of 0.79 nM.
`C[C@H]1CCCN1C(=O)Cc1ccc(OCC[C@@H]2C[C@@H]2C2CCN(c3ncc(Cl)cn3)CC2)cc1F` [Example 73] displayed an EC50 of 2.7 nM.
As for `CC1(CNC(=O)Cc2ccc(OCC[C@@H]3C[C@@H]3C3CCN(c4ncc(Cl)cn4)CC3)cc2F)CCC1` [Example 96], the figure is 5.1 nM; as for `C[C@H]1CCCN1C(=O)Cc1ccc(OCC[C@@H]2C[C@@H]2C2CCN(c3ncc(Cl)cn3)CC2)cc1F` [Example 117], 1.7 nM; as for `O=C(Cc1ccc(OCC[C@@H]2C[C@@H]2C2CCN(c3ncc(Cl)cn3)CC2)cc1F)N1CCc2[nH]c(C(F)(F)F)nc2C1` [Example 192], 2.1 nM.
Turning to `COCc1cnc(N2CCC([C@H]3C[C@H]3CCOc3ccc(CC(=O)N4CCc5nn[nH]c5C4)c(F)c3)CC2)nc1` [Example 57], a half-maximal effect (EC50) was put at 3 nM. This EC50 and that of the molecule before are within 1.5-fold of each other.
With `O=C(Cc1ccc(OCC[C@@H]2C[C@@H]2C2CCN(c3ncc(Cl)cn3)CC2)cc1F)N1CCC1` [Example 60, 1-(azetidin-1-yl)-2-[4-(2-{(1S,2R)-2-[1-(5-chloropyrimidin-2-yl)piperidin-4-yl]cyclopropyl}ethoxy)-2-fluorophenyl]ethanone] the figure was 0.19 nM; with `COCc1cnc(N2CCC([C@H]3C[C@H]3CCOc3ccc(CC(=O)N4CCOCC4)c(Cl)c3)CC2)nc1` [Example 32], 1.1 nM; with `COCc1cnc(N2CCC([C@H]3C[C@H]3CCOc3cc(F)c(CC(=O)N4CC(C)(O)C4)c(F)c3)CC2)nc1` [Example 221], 2.1 nM.
In turn, `O=C(Cc1ccc(OCC[C@@H]2C[C@@H]2C2CCN(c3ncc(Cl)cn3)CC2)cc1F)N1CCC(O)CC1` [Example 163] registered a concentration giving a half-maximal response (EC50) of 1.7 nM.
As for `COc1cnc(N2CCC([C@H]3C[C@H]3CCOc3ccc(CC(=O)N4CC(C)(O)C4)c(F)c3)CC2)nc1` [Example 35], the figure is 2.2 nM; as for `O=C(Cc1ccc(OCC[C@@H]2C[C@@H]2C2CCN(c3ncc(Cl)cn3)CC2)cc1F)N1CCC[C@@H]1C(F)(F)F` [Example 76], 2.4 nM.
On to `COCc1cnc(N2CCC([C@H]3C[C@H]3CCOc3ccc(CC(=O)N4CCC4)c(C#N)c3)CC2)nc1` [Example 25], for which the EC50 came out at 1.4 nM.
`CCC(C)CN(C)C(=O)Cc1ccc(OCC[C@@H]2C[C@@H]2C2CCN(c3ncc(Cl)cn3)CC2)cc1F` (stereo partly shown) [Example 160] showed a concentration for a half-maximal effect (EC50) of 3.1 nM.
`CC1(NC(=O)Cc2ccc(OCC[C@@H]3C[C@@H]3C3CCN(c4ncc(Cl)cn4)CC3)cc2F)CC1` [Example 93] yielded an EC50 of 3.7 nM. The EC50 values of the last two molecules are within 1.5-fold of each other.
In turn, `CC1CCC(C)N1C(=O)Cc1ccc(OCC[C@@H]2C[C@@H]2C2CCN(c3ncc(Cl)cn3)CC2)cc1F` (stereo partly shown) [Example 90] showed an EC50 of 7.2 nM. This EC50 is about 1.9-fold higher than that of the molecule before.
`Fc1cc(OCC[C@@H]2C[C@@H]2C2CCN(c3ncc(Cl)cn3)CC2)ccc1Cc1nnco1` [Example 245, 5-chloro-2-{4-[(1R,2S)-2-(2-{3-fluoro-4-[(1,3,4-oxadizol-2-yl)methyl]phenoxy}ethyl)cyclopropyl]piperidin-1-yl}pyrimidine]: the 50% effective concentration (EC50) came to 4.1 nM.
In turn, `Cc1n[nH]c2c1CN(C(=O)Cc1ccc(OCC[C@@H]3C[C@@H]3C3CCN(c4ncc(Cl)cn4)CC3)cc1F)CC2` [Example 140] came in with an EC50 of 3.2 nM. The EC50 values of the last two molecules are within 1.5-fold of each other.
